Structures can show the parent of a compound that is named as a salt.
How the values were obtained:
Type in all cases: cell-based
nitric oxide (NO) = assay: Synthesis and secretion of nitric oxide (NO) in EA.Hy926 endothelial cells, NO detection kit; conditions: EA.Hy926 cell supernatant, 24 h
Description: (§1) Commercially available cytokine kits were used to detect the effects of the compounds of the present application on vascular endothelium-derived contracting factor endothelin, vascular endothelium-derived relaxing factor endothelial nitric oxide synthase, nitric oxide, and prostacyclin factor. The detection was performed according to the kit instructions. When testing the effect of the compound of the present application on cytokines, a normal control group, a fasudil hydrochloride group, and high-, medium- and low-dose groups of the compounds of the present application were set up for testing. The fasudil hydrochloride used in this test example was purchased from Beijing Sihuan Pharmaceutical Co., Ltd., with the SFDA approval number of H20173349. The EA.Hy926 cells used in this test example were purchased from Suzhou Beina Chuanglian Biotechnology Co., Ltd.
EA.Hy926 cells were inoculated in a 24-well plate at 5×10^5 cells/mL, 400 μL per well, and cultured adherently for 18 hours, then the supernatant was discarded, the test compound prepared in DMEM medium was added, and an equal volume of DMEM medium was added in the normal control group, then the cells was cultured for 24 h in incubator, and then the cell supernatant was collected and detected according to the instructions of NO detection kit (purchased from Beyotime Institute of Biotechnology, Cat. No. 062617171017), and the detection results were shown in Table 5.

[1] = Toxicity test on endothelial cells EA.hy926, CCK-8 cell viability; conditions: human, 1000~0.32 μmol/L, 5-fold dilution, read-out: IC50 of Test compound (cytotoxicity on EA.hy926 cells)
Description: In this test example, 31 groups, i.e., Groups 1 to 31, were set, in which Group 1 was a blank control group, Group 2 was a normal control group, Group 3 was a positive control group, and Groups 4 to 31 were test groups of the compounds of the present application. The specific test operation comprised: 100 μL of endothelial cells EA.hy926 (purchased from Suzhou Beina Chuanglian Biotechnology Co., Ltd.) with a density of 5×10^4 was added to each well of a 96-well plate, and transferred to an incubator at 37° C. with 5% CO2 and saturated humidity conditions and cultured for 24 hours, 100 μL of 2× the test compound solution prepared and diluted with DMEM medium containing 10% fetal bovine serum was added, in which the test compound added in the positive control group was Fasudil hydrochloride (purchased from Beijing Sihuan Pharmaceutical Co., Ltd., SFDA approval number H20173349) solution with different concentrations, an equal volume of DMEM medium was added in the blank control group, an equal volume of PBS buffer was added in the normal control group, and a duplicate well was set for each concentration point. After adding the test compound, the culture was continued in the incubator for 24 hours, then 20 μL of CCK-8 detection solution (purchased from Beijing Solarbio Science & Technology Co., Ltd., Cat. No. CA1210) was added to each well, interacted at 37° C. for 2.5 hours, shaken and mixed well, and then the absorbance value at 450 nm was detected.
OD values were detected, and the cell viability values of test groups of different concentrations were calculated according to the cell viability calculation formula as follows: Cell viability=(Atest group−Ablank control)/(Anormal control−Ablank control)*100%
wherein A represented absorbance value at 450 nm.
Prism6.0 was used to obtain the inhibitor concentration-viability curve and to calculate the IC50 of the test compound, the correlation coefficient R^2>0.99; the inhibitor concentration-viability curves of Fasudil hydrochloride, R-YK1601, R-YK1603, R-YK1606, R-YK1607, R-YK1610 were shown in FIGS. 1 to 6, in which the abscissa was the logarithm on base 10 of the concentration of the test compound, and the ordinate was the cell activity (i.e., cell viability).

[2] = test system: endothelial nitric oxide synthase (eNOS); assay: Endothelial nitric oxide synthase (eNOS) in EA.Hy926 endothelial cells, detection kit; conditions: 24 h; for expression of endothelial nitric oxide synthase in endothelial cells: Detection result of test compound at low dose (0.4 μM) / expression of endothelial nitric oxide synthase in endothelial cells: Detection result of test compound at medium dose (2 μM) / expression of endothelial nitric oxide synthase in endothelial cells: Detection result of test compound at high dose (10 μM): EA.Hy926 cell supernatant
Description: as §1
Detection conditions: EA.Hy926 cells were inoculated at 1×10^5 […] in a 96-well plate, 100 μL per well, and cultured adherently for 24 hours, then the test compound prepared with DMEM medium was added, the normal control group was added with an equal volume of DMEM medium, then the cells were cultured for 24 hours at 37° C., and then the cell supernatant was taken and placed in an EP tube, and centrifuged at 3000 r/min and 4° C. for 15 minutes, the resulting supernatant was transferred to a new EP tube, diluted 3 times, and detected according to the instruction of eNOs detection kit (purchased from Wuhan Elabscience Biotechnology Co., Ltd., Cat. No. AK0017OCT12013), and the detection results were shown in Table 4.

| SMILES | nitric oxide secretion in endothelial cells: Detection result of test compound at low dose (0.4 μM) (nitric oxide (NO)) [μm] | nitric oxide secretion in endothelial cells: Detection result of test compound at medium dose (2 μM) (nitric oxide (NO)) [μm] | nitric oxide secretion in endothelial cells: Detection result of test compound at high dose (10 μM) (nitric oxide (NO)) [μm] | IC50 at 24 h [1] [µM] | expression of endothelial nitric oxide synthase in endothelial cells: Detection result of test compound at low dose (0.4 μM) [2] [pg/mL] | expression of endothelial nitric oxide synthase in endothelial cells: Detection result of test compound at medium dose (2 μM) [2] [pg/mL] | expression of endothelial nitric oxide synthase in endothelial cells: Detection result of test compound at high dose (10 μM) [2] [pg/mL] | effect on the expression of nitric oxide synthase (in words) ([2]; high dose) |
| --- | --- | --- | --- | --- | --- | --- | --- | --- |
| C[C@@H]1CNCCCN1S(=O)(=O)c1cccc2c(O)nccc12 [Compound R-YK1601, (R)-5-((2-methyl-1,4-diazacycloheptan-1-yl)sulfonyl)isoquinolin-1-ol] | 0.806 ± 0.057 | 0.896 ± 0.147 | 1.131 ± 0.134 | 686 | 2526.66 ± 220.56 | 2339.70 ± 249.84 | 2598.44 ± 365.33 | slight promotion effect |
| COc1nccc2c(S(=O)(=O)N3CCCNC[C@H]3C)cccc12 [Compound R-YK1602, (R)-1-methoxy-5-((2-methyl-1,4-diazacycloheptan-1-yl)sulfonyl)isoquinoline] | 0.878 ± 0.006 | 0.914 ± 0.032 | 1.005 ± 0.006 | 433 | 2607.85 ± 384.81 | 2314.00 ± 393.66 | 2262.45 ± 134.54 |  |
| COc1ncc(F)c2c(S(=O)(=O)N3CCCNC[C@H]3C)cccc12 [Compound R-YK1605, (R)-4-fluoro-1-methoxy-5-((2-methyl-1,4-diazacycloheptan-1-yl)sulfonyl)isoquinoline] | 0.950 ± 0.134 | 1.023 ± 0.006 | 1.122 ± 0.006 | 184 | 2752.53 ± 779.12 | 2261.58 ± 253.77 | 2105.70 ± 87.14 |  |
| CC[C@@H]1CNCCCN1S(=O)(=O)c1cccc2c(OC)nccc12 [Compound R-YK1610, (R)-5-((2-ethyl-1,4-diazacycloheptan-1-yl)sulfonyl)-1-methoxyisoquinoline] | 0.997 ± 0.057 | 1.068 ± 0.032 | 1.121 ± 0.006 | 169 | 2632.05 ± 235.87 | 2397.93 ± 280.08 | 2329.68 ± 263.98 |  |
| CCc1cnc(O)c2cccc(S(=O)(=O)N3CCCNC[C@H]3C)c12 [Compound R-YK1607, (R)-4-ethyl-5-((2-methyl-1,4-diazacycloheptan-1-yl)sulfonyl)isoquinolin-1-ol] | 0.898 ± 0.006 | 0.924 ± 0.032 | 1.010 ± 0.006 | 230 | 2426.66 ± 220.56 | 2239.70 ± 249.84 | 2298.44 ± 265.33 |  |
| O=S(=O)(c1cccc2cnccc12)N1CCCNCC1 [Fasudil hydrochloride, reference compound] | 1.131 ± 0.045 | 1.356 ± 0.045 | 1.450 ± 0.000 | 75.7 | 2810.61 ± 13.02 | 2648.66 ± 9.59 | 2636.14 ± 188.26 |  |

Reference: US12264146B2, “Rho kinase inhibitor, method for preparing same and uses thereof” (BEIJING INCREASE INNOVATIVE DRUG CO., LTD., priority 2018, dated 2025)
